In US10487313B2, “Efficient induction of definitive endoderm from pluripotent stem cells” (Novo Nordisk A/S, priority 2011, dated 2019):

Test system: chIPS4 cells
Test: OCT4 and SOX17 protein ICC quantification during DE induction, DEF culture system
Type: cell-based, human
Details: for OCT4 ICC % positive cells / SOX17 ICC % positive cells: CHIR 3 μM D1 then Activin A D2-3, or D'Amour protocol
Method: Human embryonic stem (hES) cells SA121 and chIPS4 (Cellartis) were grown on human fibronectin (Sigma) in DEF culture media (Cellartis) with 30 ng/ml bFGF (Invitrogen) and 10 ng/ml Noggin (Peprotech) in 6-96 well plates. Cells were single cell passaged with Rock inhibitor Y-27632 (Calbiochem) and seeded at a density of 40000 cells/cm2 for experiments. Experiments were initiated 4 d after passage.
Confluent cultures were washed once in RPMI1640 (Invitrogen) before 24 hour pre-treatment with 0,5-7μM CHIR99021 (Stemgent) in RPMI. Control cells were left untreated in RPMI and D'Amour cells were either left in RPMI or treated with AA (Peprotech)+Wnt3a (R&D Systems) without pre-treatment depending on experimental setup.
After 24 hours, pretreated and control cells were washed once with RPMI before adding 100 ng/ml AA in RPMI. D'Amour cells were also treated with 100 ng/ml AA but with 0,2% FBS instead of B27. 24 h later, 2% B27 (Invitrogen) was added to the AA media for 2-3 d. Control cells were treated with B27 to prevent cell death and D'Amour cells with 2% FBS according to published protocol. Media was changed every day.
• Day 1: Cells were washed carefully in prewarmed (37° C.) RPMI before starting the differentiation. Day1 medium was premixed (CHIR 3 μM in prewarmed RPMI+PEST) and gently added to cell culture. Volumes were adjusted according to plate formats. • Day 2: Cells were washed carefully in prewarmed (37° C.) RPMI before media change. Day2 medium was premixed (100 ng/ml Activin A in prewarmed RPMI+0.1% PEST) and gently added to cell culture. • Day 3: Day3&4 mediums were premixed (100 ng/ml Activin A and 2% B27 in prewarmed RPMI+0.1% PEST) and gently added to cell culture. • Day 4: DE was harvested or reseeded for further differentiation. Cells were checked under the microscope every day.
Cells were washed in PBS+/+ and fixed in 4% formaldehyde for 30 min (10% formaline, VWR). The cells were then washed again three times in PBS and left in PBS (4° C.) until staining. Fixed cells were washed with PBS once, then permeabilized with 0.5% Triton X-100 in PBS for 6 min, washed in PBS and blocked with TNB buffer (0.1 M Tris-HCL pH 7.5, 0.15 M NaCl, 0.5% Blocking Reagent (Perkin Elmer)) for 30 min. Primary antibodies (goat-anti-SOX17 (AF1924, RnD Systems); goat-anti-Brachyury (AF2085, RnD Systems); mouse-anti-OCT4 (sc5279, SantaCruz Biotechnology); goat-anti-PDX1 (AB47383, Abcam)) were added in 0.1% TritonX-100+PBS for 1 h in RT or 4° C. O/N. After a thorough washing step in PBS, secondary antibodies were added together with DAPI in 0.1% Triton X-100+PBS for 45 min at RT, washed thoroughly in PBS and left in PBS until photodocumentation.
Undifferentiated ChIPS4 cells (d0) were either pre-treated for 24 h with CHIR (3 μM) or directly exposed to AA (100 ng/ml) and Wnta3a (25 ng/ml) according to Kroon et al 2008. The cells were then washed and AA was added for 1-4 d.
In addition, the most striking difference between the protocols could be seen in terms of morphology with a much higher degree of cell death during D'Amour treatment. To further strengthen the results, a quantification of SOX17 protein expression was thus performed. chIPS4 cells treated with either the CHIR- or D'Amour-protocol were fixed and stained using a SOX17-specific ab and the images were quantified in respect of total amounts and the percentage of SOX17-positive cells. […] In addition, the total amount of CHIR pre-treated cells was 25% higher than the number seen after D'Amour treatment.

## Cc1c[nH]c(-c2cnc(NCCNc3ccc(C#N)cn3)nc2-c2ccc(Cl)cc2Cl)n1 [CHIR, CHIR99021]
chIPS4, D1
  OCT4 ICC % positive cells: 91.2%
  SOX17 ICC % positive cells: 0.9%
chIPS4, D2
  OCT4 ICC % positive cells: 3.1%
  SOX17 ICC % positive cells: 68.8%
chIPS4, D3
  OCT4 ICC % positive cells: 3.7%
  SOX17 ICC % positive cells: 91.5%
chIPS4, d3, image quantification
  total amount of cells higher than after D'Amour treatment: 25%
